Laboratory results: US20030228566A1, “Method of and apparatus for screening for drug candidates” (BioTechPlex Corporation, priority 2002, published 2003)

Test system: normal human bronchial epithelial cells (NHBE)
Experiment: Cumulative dose kinetic responses of intracellular Ca++, Cl- and cell membrane potential (simultaneous three-fluorophore photon counting: Fluo-3, di-MEQ, RH421)
Format: cell-based
Conditions: for intracellular Ca++ response / intracellular Cl- response / membrane potential response: cumulative dosing
Description: Normal human bronchial/tracheal epithelial cells (NHBE, Clonetics) were cultured in T-25 cm^2 flasks at 37° C., 5% CO2 using Bronchial/Tracheal Epithelial Cell Growth Medium containing Retinoic Acid (BEGM, w/RA, Clonetics). When the NHBE cells in the T-25 flasks reached 60%-80% confluency, the cells were passaged using a seeding density of 3500 cells/cm^2. A portion of the cells was passaged in T-25 flasks again while the remaining cells were seeded on UV-exposed Vitrogen (pH balanced 1:1 BEGM to Vitrogen) coated 4-well cover glass chambers (LabTek II). NHBE cells normally attached to the collagen-coated cover glass chamber within 24 hrs. Prior to these cells reaching 60% confluency, they were used for all the experiments described below. Cells used in all the experiments were either 2nd or 3rd passage cells maintained in Bronchial/Tracheal Epithelial Cell Growth Medium with Retinoic Acid (BEGM, w/RA, Clonetics).
The following procedures for loading the cells with fluorophore were employed. Balanced Hank's (BH) solution without phenol red was used as the medium for all the fluorophore preparations and cell washings unless stated otherwise. Fluo-3 (a Ca^++ indicator), di-MEQ (a Cl^− indicator) and RH421 (a cell membrane potential indicator) were loaded into cells sequentially at room temperature. Cells were first incubated with 8 μM Fluo-3 solution for 60 minutes, followed by incubating with 50 μM di-MEQ for 5 minutes and then finally with 10 μM RH421 for 5 minutes. Extraneous dyes were washed with BH solution between each fluorophore loading procedure. The cells were allowed to stabilize in BEGM for a minimum of 15 minutes at room temperature prior to the beginning of each experiment.
Experiments were performed at room temperature. All tested agents were prepared in Balanced Hank's Solution. One of the wells of the cover glass chamber was placed on the stage of the inverted microscope and the cells loaded with the fluorophores were visually focused with the violet, green and orange emitted light from the cells approximately in the same focal plane. At a sampling frequency of 100 Hz, cells with the following photon counts were chosen for the study: 20 to 50 counts per channel (cpc) for Ca^++ fluorescence, 70 to 200 cpc for Cl^− fluorescence, and 20 to 50 cpc for cell membrane potential fluorescence. After establishing a 2 minute baseline, increasing doses of the agent of interest were added topically to the wells 2 minutes apart. At the end of each experiment, a toxic dose of the agent of interest was added to the sample to either shrink or swell the cells beyond their normal cell volume regulatory range. This caused the fluorescence signals of each of these fluorophores to reach either maximum or minimum values. […] Background fluorescence was recorded using a cell free area of the same well. If the signal to background ratio was not higher than a factor of 10, the experiments were also discarded.

[1] = 25 μM to 500 μM cumulative dosing, general statement
[2] = Glibenclamide concentrations below 500 μM

Structure (SMILES) | [Cl-]i (MEQ fluorescence inversely proportional to [Cl-]i), overall effect [1] | cell membrane polarization, overall effect [1] | intracellular Ca++ response [2] | intracellular Cl- response [2] | membrane potential response [2] | intracellular Ca++ response (concentration 500 μM) | intracellular Cl- response (concentration 500 μM) | membrane potential response (concentration 500 μM) | intracellular Ca++ response (concentration 0.1 mM) | intracellular Cl- response (concentration 0.1 mM) | membrane potential response (concentration 0.1 mM) | intracellular Ca++ response (concentration 1 mM) | intracellular Cl- response (concentration 1 mM) | membrane potential response (concentration 1 mM)
COc1ccc(Cl)cc1C(=O)NCCc1ccc(S(=O)(=O)NC(=O)NC2CCCCC2)cc1 [Glibenclamide] | increased | hyperpolarized | little affected | declines as Glibenclamide concentration increases | little affected | rapid increase | simultaneous drop | simultaneous increase | – | – | – | – | – | –
O=c1ccn([C@@H]2O[C@H](COP(=O)(O)OP(=O)(O)OP(=O)(O)O)[C@@H](O)[C@H]2O)c(=O)[nH]1 [UTP, uridine triphosphate] | – | – | – | – | – | – | – | – | rapid increase | essentially no changes | essentially no changes | rapid increase | essentially no changes | essentially no changes
